Laboratory results: patent publication US6043248A, “Alpha-substituted pyrimidine-thioalkyl and alkylether compounds as inhibitors of viral reverse transcriptase” (priority 1997, dated 2000)

target: T1, P236L viral reverse transcriptase (Human immunodeficiency virus type 1 group M subtype B, UniProt P04585, P823L); experiment: inhibition of viral reverse transcriptase (P236L), cell free assay; assay type: biochemical; conditions: 30 minutes at 37° C., read-out: IC50 (Table I, P236L)
T1 construct: P236L viral reverse transcriptase is obtained by PNAS 90: 4713-4717 (1993); made in house
From the text: The utility of the pyrimidine-thioalkyl and alkylether anti-AIDS compounds of Formula IA of this invention can be determined by their ability to inhibit viral reverse transcriptase, an enzyme essential for human immunodeficiency virus replication. This enzyme has characteristics which differentiate it from other known cellular polymerases and it is a unique enzyme which is not found in uninfected cells. Viral reverse transcriptase (Wild Type) is found in extracts from bacterial clones prepared according to the procedure described in AIDS Virus Reverse Transcriptase defined by high level expression in Escherichia coli, EMBO J. 6:3133-3137 (1987). P236L viral reverse transcriptase is obtained by PNAS 90: 4713-4717 (1993). Inhibition of this enzyme is determined in a cell free assay which measures the level of radioactive precursors incorporated into DNA. Extracts prepared according to the procedure of Science, 1125-1129 (1981) are incubated in a mixture of inhibitor, 20 mM dithiothreitol, 60 mM sodium chloride, 0.05% NP-40, 10 mM magnesium chloride, 50 mM Tris pH 8.3, 10 μM [^35 S]-labeled deoxynuleoside-5'-triphosphate, 10 μg/ml RNA template (poly rC or poly rG) and 5 μg/ml DNA primer (oligo dG or oligo dT) for 30 minutes at 37° C. Incorporation of radio-labeled percursor is determined by spotting aliquots of the reaction mixture on DE81 paper, washing the papers to remove unincorporated percursor, drying and determining counts. The results (IC50 means the concentration, in μM of drug, required to inhibit the reverse transcriptase activity (P236L and Wild Type) to the extent of 50%) of various assay(s) are combined and reported as % inhibition and/or IC50 (calculated) in Table I (P236L) and Table II (Wild Type).

Molecule	IC50 [nM]
CCc1ccc(CSc2nc(N)cc(Cl)n2)nc1 [Example 134, 4-amino-6-chloro-2-[2-(4-ethyl)pyridylmethylthio]-pyrimidine]	50
Nc1cc(Cl)nc(SCC(=O)c2ccccc2)n1 [Example 100, 4-amino-6-chloro-2-[2-(1-phenyl-1-ethanon)thio]-pyrimidine]	2000
COc1cc(C)nc(CSc2nc(N)cc(Cl)n2)c1 [Example 120, 4-amino-6-chloro-2-[2-(4-methoxy-6-methyl)-pyridylmethylthio]-pyrimidine]	20
Nc1cc(Cl)nc(SCc2ccc3c(c2)CCO3)n1 [Example 168, 4-Amino-6-chloro-2-[(2,3-dihydrobenzofuran-5-ylmethyl)thio]pyrimidine]	50
Nc1cc(Cl)nc(SCc2ccc3c(c2)OCO3)n1 [Example 186, 4-Amino-6-chloro-2-[(piperon-5-ylmethyl)thio]pyrimidine]	500
CC(C)Cc1ccnc(CSc2nc(N)cc(Cl)n2)c1 [Example 124, 4-amino-6-chloro-2-[2-(4-(2-methylpropyl))pyridylmethylthio]-pyrimidine]	40000
Nc1cc(Cl)nc(SCc2cccnc2)n1 [Example 57, 4-amino-6-chloro-2-(3-pyridylmethylthio)-pyrimidine]	10000
Cc1c(N)nc(SCc2ccc3ccccc3c2)nc1Cl [Example 90, 4-amino-5-methyl-6-chloro-2-(2-naphthylmethylthio)-pyrimidine]	5000
Nc1cc(Cl)nc(SCc2ccc(Cl)s2)n1 [Example 144, 4-Amino-6-chloro-2-[(5-chlorothiophen-2-ylmethyl)thio]pyrimidine]	5000
COc1ccnc(CSc2nc(N)cc(Cl)n2)c1 [Example 123, 4-amino-6-chloro-2-[2-(4-methoxy)pyridylmethylthio]-pyrimidine]	50
Nc1cc(Cl)nc(SCc2cccc(Cl)c2)n1 [Example 42, 4-amino-6-chloro-2-(3-chlorophenylmethylthio)-pyrimidine]	500
4-Amino-6-chloro-2-[[(5-chloroimidazo[1,2-a]pyridin-2-yl)methyl]thio]-pyrimidine [Example 172]	50000
Nc1cc(Cl)nc(SCc2ccc(Cl)cc2Cl)n1 [Example 51, 4-amino-6-chloro-2-(2,4-dichlorophenylmethylthio)-pyrimidine]	1000
Nc1cc(Cl)nc(SCc2ccc(Cl)c(Cl)c2)n1 [Example 49, 4-amino-6-chloro-2-(3,4-dichlorophenylmethylthio)-pyrimidine]	60
Nc1nc(SCc2ccc3ccccc3c2)nc(Cl)c1F [Example 91, 4-amino-5-fluoro-6-chloro-2-(2-naphthylmethylthio)-pyrimidine]	2500
Nc1cc(Cl)nc(SCc2cccc3ncccc23)n1 [Example 183, 4-Amino-6-chloro-2-[(quinolin-5-ylmethyl)thio]pyrimidine]	40
Cc1ccc(CSc2nc(N)cc(Cl)n2)nc1 [Example 118, 4-amino-6-chloro-2-[2-(5-methyl)pyridylmethylthio]-pyrimidine]	70
Nc1cc(Cl)nc(S(=O)(=O)Cc2cccc(Br)c2)n1 [Example 69, 4-amino-6-chloro-2-(3-bromophenylmethylsulfonyl)pyrimidine]	20000
Nc1cc(Cl)nc(SCc2cc(C3CC3)ccn2)n1 [Example 137, 4-amino-6-chloro-2-[2-(4-cyclopropyl)pyridylmethylthio]-pyrimidine]	10
N#Cc1ccnc(CSc2nc(N)cc(Cl)n2)c1 [Example 128, 4-amino-6-chloro-2-[2-(4-cyano)pyridylmethylthio]-pyrimidine]	1000

Molecule	IC50 [nM]
Cc1ccnc(CSc2nc(N)cc(Cl)n2)c1 [Example 114, 4-amino-6-chloro-2-[2-(4-methyl)pyridylmethylthio]-pyrimidine]	10
Cc1cccc(CSc2nccc(N)n2)c1 [Example 96, 4-amino-2-(3-methylphenylmethylthio)-pyrimidine]	50000
Nc1cc(Cl)nc(SCc2cc3ccccc3cn2)n1 [Example 182, 4-Amino-6-chloro-2-[(isoquinolin-3-ylmethyl)thio]pyrimidine]	20
Clc1cc(N2CCCC2)nc(SCc2ccccc2)n1 [Example 85, 4-pyrrolidino-6-chloro-2-(benzylthio)-pyrimidine]	30000
Cc1ccccc1CSc1nc(N)cc(Cl)n1 [Example 35, 4-amino-6-chloro-2-(2-methylphenylmethylthio)-pyrimidine]	300
Nc1cc(Cl)nc(SCc2ccccc2)n1 [Example 34A, 4-amino-6-chloro-2-(benzylthio)-pyrimidine]	2000
Nc1ccnc(SCc2cccc(Br)c2)n1 [Example 95, 4-amino-2-(3-bromophenylmethylthio)-pyrimidine]	1000
Clc1cc(N2CCCCC2)nc(SCc2ccccc2)n1 [Example 84, 4-piperido-6-chloro-2-(benzylthio)-pyrimidine]	10000
NC(=O)c1ccnc(CSc2nc(N)cc(Cl)n2)c1 [Example 163, 4-amino-6-chloro-2-[2-(4-carboxamido)-pyridylmethylthio]-pyrimidine]	20000
Nc1cc(Cl)nc(SCc2cccc(C(F)(F)F)c2)n1 [Example 38, 4-amino-6-chloro-2-(3-trifluoromethylphenylmethylthio)-pyrimidine]	1000
Nc1cc(Cl)nc(SCc2cccc[n+]2[O-])n1 [Example 147, 2-[2-(4-amino-6-chloro)pyrimidinylthiomethyl]-pyridine-1-oxide]	5000
COC(=O)c1cccc(CSc2nc(N)cc(Cl)n2)c1 [Example 46, 4-amino-6-chloro-2-(3-carbomethoxyphenylmethylthio)-pyrimidine]	100
CC(C)(C)c1ccc(CSc2nc(N)cc(Cl)n2)cc1 [Example 47, 4-amino-6-chloro-2-(4-t-butylphenylmethylthio)-pyrimidine]	1000
Nc1cc(Cl)nc(SCc2cccc(Br)c2)n1 [Example 43, 4-amino-6-chloro-2-(3-bromophenylmethylthio)-pyrimidine]	140
Cc1cc(CSc2nc(N)cc(Cl)n2)no1 [Example 174, 4-Amino-6-chloro-2-[(5-methylisoxazol-3-ylmethyl)thio]pyrimidine]	500
CN(C)c1ccnc(CSc2nc(N)cc(Cl)n2)c1 [Example 146, 4-amino-6-chloro-2-[2-(4-dimethylamino)pyridylmethylthio]-pyrimidine]	10
Nc1nc(SCc2ccccc2)nc(Cl)c1C1CCCCC1 [Example 53, 4-amino-6-chloro-5-cyclohexyl-2-(benzylthio)-pyrimidine]	15000
Cc1cccc(CSc2nc(N)cc(Cl)n2)n1 [Example 113, 4-amino-6-chloro-2-[2-(6-methyl)pyridylmethylthio]-pyrimidine]	90
CC(C)Oc1cccc(CSc2nc(N)cc(Cl)n2)c1 [Example 109, 4-amino-6-chloro-2-(3-isopropoxyphenylmethylthio)-pyrimidine]	2000
Nc1ccnc(SCc2ccc3ccccc3c2)n1 [Example 98, 4-amino-2-(2-naphthylmethylthio)-pyrimidine]	5000

same assay, conditions: IC50 (Table I, P236L), 30 minutes at 37° C.

Molecule	IC50 [nM]
Nc1cc(Cl)nc(SCc2nc3ccccc3s2)n1 [Example 99, 4-amino-6-chloro-2-(2-benzothiazolomethylthio)-pyrimidine]	500
